From patent publication US7241795B2, “Synthesis and antimicrobial activity of novel dicationic “reversed amidines”” (The University of North Carolina at Chapel Hill, priority 2000, dated 2007)
Converted amounts (≈) assume the structure as drawn. Counter-ions that a name gives are not always drawn.

Columns and labels:
M. tuberculosis H37Rv = experiment: Microplate Alamar Blue Assay (MABA) in BACTEC 12B medium; assay type: cell-based, Mycobacterium tuberculosis; settings: for MIC / inhibition at 6.25 µg/mL: Mycobacterium tuberculosis, H37RV; for MIC: read-out: MTb MIC; for inhibition at 6.25 µg/mL: % Inhibition at 6.25 μg/ml, read-out: MTb % Inh
Candida albicans = experiment: Antifungal broth macrodilution susceptibility testing (MIC/MFC), yeast; assay type: cell-based; settings: for MFC / MIC: Candida albicans; for MFC: read-out: C. albicans MFC; for MIC: read-out: C. albicans MIC
d(CGCGAATTCGCG)2 = experiment: DNA thermal melting (ΔTm); assay type: binding; settings: oligo = d(CGCGAATTCGCG)2
poly dA•dT = experiment: DNA thermal melting (ΔTm); assay type: binding
Aspergillus fumigatus = experiment: Antifungal broth macrodilution susceptibility testing (MIC/MFC), mold; assay type: cell-based; settings: Aspergillus fumigatus, strain 168.95; for MFC: read-out: Aspergillus fumigatus MFC; for MIC: read-out: Aspergillus fumigatus MIC
[1] = lowest concentration effecting ≧90% reduction of fluorescence
[2] = reference strain C. albicans A39

SMILES | melting point | MFC (Candida albicans; [2]) | MIC (Candida albicans; [2]) | DNA Affinities ΔTm (oligo) (d(CGCGAATTCGCG)2) | DNA Affinities ΔTm (AT) (poly dA•dT) | MFC (Aspergillus fumigatus) | MIC (Aspergillus fumigatus) | also measured
Cl.Cl.N=C(N)Nc1ccc(-c2ccc(-c3ccc(NC(=N)N)cc3Cl)o2)c(Cl)c1 [Compound 5d, 2,5-Bis(2-chloro-4-guanidinophenyl)furan dihydrochloride] | 300 to 304 °C (dec.) | 100 µg/mL | 10 µg/mL | 4.7 | 26.1 | 100 µg/mL | 100 µg/mL | MIC (M. tuberculosis H37Rv; [1]): 4 µg/mL
Cc1cc(N=Nc2ccccn2)cc(C)c1-c1ccc(-c2c(C)cc(N=Nc3ccccn3)cc2C)o1 [Compound 6m, 2,5-Bis[2,6-dimethyl-4-(2-pyridylimino)aminophenyl]furan] | – | > 100 µg/mL | 10 µg/mL (≈ 20.6 µM) | 1.2 | 5.7 | > 100 µg/mL | 10 µg/mL (≈ 20.6 µM) | –
Cc1cc(N=Nc2ccc3ccccc3n2)ccc1-c1ccc(-c2ccc(N=Nc3ccc4ccccc4n3)cc2C)o1 (as salt: hydrochloride) [Compound 6i, 2,5-Bis[2-methyl-4-(2-quinolylimino)aminophenyl]furan] | 168 to 169 °C | – | – | – | – | – | – | –
N=C(Nc1ccc(-c2ccc(-c3ccc(NC(=N)c4ccccc4)cc3)s2)cc1)c1ccccc1 [DB 653, 2,5-Bis[4-(benzimidoyl)aminophenyl]thiophene] | – | – | > 100 µg/mL | 12.8 | 20.2 | – | > 100 µg/mL | –
N=C(N)c1ccc(-c2ccc(-c3ccc(C(=N)N)cc3)o2)cc1 [2,5-bis [4-amidinophenyl]furan, reference compound] | – | – | – | 11.7 | 25 | – | – | –
c1ccc(N=Nc2ccc(-c3ccc(-c4ccc(N=Nc5ccccn5)cc4)o3)cc2)nc1 (as salt: hydrochloride) (hydrate or solvate) [Compound 6a, 2,5-Bis[4-(2-pyridylimino)aminophenyl]furan] | 221 to 223 °C | – | – | – | – | – | – | –
COc1cc(NC(=N)N)ccc1-c1ccc(-c2ccc(NC(=N)N)cc2OC)o1.Cl.Cl [Compound 5c, 2,5-Bis(4-guanidino-2-methoxyphenyl)furan dihydrochloride] | – | 100 µg/mL | 10 µg/mL | 2.8 | 15.2 | 100 µg/mL | 100 µg/mL | MIC (M. tuberculosis H37Rv; [1]): 16 µg/mL
Br.Br.CC(=N)Nc1ccc(-c2ccc(-c3ccc(NC(C)=N)cc3C)o2)c(C)c1 [Compound 6f, 2,5-Bis [4-(acetimidoyl)amino-2-methylphenyl]furan Dihydrobromide] | 282.5 to 284 °C (dec.) | – | > 100 µg/mL | 2.4 | 14.5 | – | > 100 µg/mL | inhibition at 6.25 µg/mL (M. tuberculosis H37Rv): 18%
Cc1ccc(N=Nc2ccc(-c3ccc(-c4ccc(N=Nc5ccc(C)cn5)cc4C)o3)c(C)c2)nc1 (as salt: hydrochloride) [Compound 6j, 2,5-Bis[2-methyl-4-(5-methyl-2-pyridylimino)aminophenyl]furan] | 156 to 158 °C | – | – | – | – | – | – | –
Clc1cc(N=Nc2ccccn2)ccc1-c1ccc(-c2ccc(N=Nc3ccccn3)cc2Cl)o1 (as salt: hydrochloride) [Compound 6l, 2,5-Bis[2-chloro-4-(2-pyridylimino)aminophenyl]furan] | 189 to 190 °C | – | – | – | – | – | – | –
COc1cc(N=Nc2ccccn2)ccc1-c1ccc(-c2ccc(N=Nc3ccccn3)cc2OC)o1 (as salt: hydrochloride) [Compound 6k, 2,5-Bis[2-methoxy-4-(2-pyridylimino)aminophenyl]furan] | 196 to 197 °C | – | – | – | – | – | – | –
Cl.Cl.N=C(Nc1ccc(-c2ccc(-c3ccc(NC(=N)c4ccccc4)cc3)o2)cc1)c1ccccc1 [Compound 6b, 2,5-Bis[4-(benzimidoylamino)phenyl]furan Dihydrochloride] | – | 50 µg/mL | 25 µg/mL | 15.0 | 28.6 | – | – | –
c1cc(-c2ccc(-c3ccc(N=NC4CCCCC4)cc3)o2)ccc1N=NC1CCCCC1 [Compound 6d, 2,5-Bis[4-(cyclohexylimino)aminophenyl]furan] | – | – | > 100 µg/mL | 12.8 | 26.7 | > 100 µg/mL | 100 µg/mL (≈ 227 µM) | activity against M. tuberculosis, in words (M. tuberculosis H37Rv): some activity; MIC (M. tuberculosis H37Rv; [1]): ≤ 6.25 µg/mL
Cc1cc(NC(=N)N)ccc1-c1ccc(-c2ccc(NC(=N)N)cc2C)o1.Cl.Cl [Compound 5b, 2,5-Bis(4-guanidino-2-methylphenyl)furan dihydrochloride] | 265 to 271 °C (dec.) | 2.08 µg/mL | 1 to 3 µg/mL | 6.9 | 17.8 | 33.4 µg/mL | 33.4 µg/mL | MIC (M. tuberculosis H37Rv; [1]): 1 to 3 µg/mL; activity against C. albicans, in words (Candida albicans): fungicidal
Cc1cc(NC(=N)c2ccccc2)ccc1-c1ccc(-c2ccc(NC(=N)c3ccccc3)cc2C)o1 [Compound 6g, 2,5-Bis[4-(benzimidoyl)amino-2-methylphenyl]furan] | – | 6.25 µg/mL (≈ 12.9 µM) | 3.12 µg/mL (≈ 6.44 µM) | 7.8 | 24.9 | – | – | –
OC(Cn1cncn1)(Cn1cncn1)c1ccc(F)cc1F [Fluconazole, reference compound] | – | – | – | – | – | – | – | activity against C. albicans, in words (Candida albicans): fungistatic
N=C(Nc1ccc(-c2ccc(-c3ccc(NC(=N)c4ccccc4)cc3)s2)cc1)c1ccccc1 (hydrate or solvate) [DB 653, 2,5-Bis[4-(benzimidoyl)aminophenyl]thiophene] | 284 to 286 °C (dec.) | – | – | – | – | – | – | –
Cl.Cl.N=C(N)Nc1ccc(-c2ccc(-c3ccc(NC(=N)N)cc3)o2)cc1 [Compound 5a, 2,5-Bis(4-guanidinophenyl)furan dihydrochloride] | – | 25 µg/mL | – | 10.8 | 21.6 | > 100 µg/mL | 100 µg/mL | activity against C. albicans, in words (Candida albicans): fungicidal
N=C(N)Nc1ccc(-c2ccc(-c3ccc(NC(=N)N)cc3)s2)cc1 [DB 686] | – | – | – | – | – | – | – | MTb MIC (M. tuberculosis H37Rv; H37Rv, lowest concentration effecting ≧90% reduction of fluorescence): <1 µg/mL; C. albicans MFC (Candida albicans; [2]): 4.17 µg/mL; C. albicans MIC (Candida albicans; [2]): 4.17 µg/mL
Br.Br.CC(=N)Nc1ccc(-c2ccc(-c3ccc(NC(C)=N)cc3)o2)cc1 [Compound 6e, 2,5-Bis[4-(acetimidoyl)aminophenyl]furan Dihydrobromide] | 307 to 309.5 °C (dec.) | – | > 100 µg/mL | 6.0 | 15.9 | > 100 µg/mL | 100 µg/mL | inhibition at 6.25 µg/mL (M. tuberculosis H37Rv): 0%
Cc1ccc(C(=N)Nc2ccc(-c3ccc(-c4ccc(NC(=N)c5ccc(C)cc5)cc4)o3)cc2)cc1.Cl.Cl [Compound 6c, 2,5-Bis [4-[(4-methylbenzimidoyl)amino]phenyl]furan Dihydrochloride] | 348 to 350.5 °C | – | > 100 µg/mL | 15.4 | >28 | – | – | MIC (M. tuberculosis H37Rv; [1]): ≤ 6.25 µg/mL
Cc1cc(NC(=N)N)cc(C)c1-c1ccc(-c2c(C)cc(NC(=N)N)cc2C)o1.Cl.Cl [Compound 5f, 2,5-Bis(4-guanidino-2,6-dimethylphenyl)furan dihydrochloride] | – | – | – | 1.4 | 2.7 | – | – | –
Cl.Cl.N=C(N)Nc1ccc(-c2ccc(-c3ccc(NC(=N)N)cc3C(F)(F)F)o2)c(C(F)(F)F)c1 [Compound 5e, 2,5-Bis (4-guanidino-2-trifluoromethylphenyl) furan dihydrochloride] | – | 10 µg/mL | 10 µg/mL | – | 5.9 | 100 µg/mL | 100 µg/mL | MIC (M. tuberculosis H37Rv; [1]): 8 µg/mL
